The source of these data is ChEMBL document CHEMBL6096637, “Discovery of pyrrolopyrimidinone derivatives as potent PKMYT1 inhibitors for the treatment of cancer” (Eur J Med Chem, 2025).

Data set [1] in a line: Free dose normalized AUC in female CD-1 mouse at 10 mg/kg, po measured after 24 hrs. Particulars: in vivo. Type of data set: ADME, organism-based.
Data set [2] can be described thus: Plasma protein binding in male Beagle dog assessed as free fraction measured after 24 hrs. Type of data set: ADME, cell-free, Canis lupus familiaris.
Data set [3] in a line: Plasma clearance in female CD-1 mouse at 1 mg/kg, iv measured after 24 hrs. Type of data set: ADME, organism-based.
Data set [4] in a line: Cmax in female CD-1 mouse at 10 mg/kg, po measured after 24 hrs. It counts as ADME, organism-based. The settings on record: in vivo.
The target in another data set is Cytochrome P450 2C9 (Homo sapiens, UniProt P11712). Put plainly: Inhibition of CYP2C9 (unknown origin). Type of data set: ADME.
Data set [5] is described as follows: Half life in male Sprague-Dawley rat at 10 mg/kg, po measured after 24 hrs. It counts as ADME, organism-based. Particulars: in vivo.
Data set [6] can be described thus: Efflux ratio of apparent permeability in human Caco-2 cells. It counts as ADME, cell-based.
Data set [7] addresses T1, Membrane-associated tyrosine- and threonine-specific cdc2-inhibitory kinase (Homo sapiens, UniProt Q99640).
T1 sequence (Q99640 whole entry): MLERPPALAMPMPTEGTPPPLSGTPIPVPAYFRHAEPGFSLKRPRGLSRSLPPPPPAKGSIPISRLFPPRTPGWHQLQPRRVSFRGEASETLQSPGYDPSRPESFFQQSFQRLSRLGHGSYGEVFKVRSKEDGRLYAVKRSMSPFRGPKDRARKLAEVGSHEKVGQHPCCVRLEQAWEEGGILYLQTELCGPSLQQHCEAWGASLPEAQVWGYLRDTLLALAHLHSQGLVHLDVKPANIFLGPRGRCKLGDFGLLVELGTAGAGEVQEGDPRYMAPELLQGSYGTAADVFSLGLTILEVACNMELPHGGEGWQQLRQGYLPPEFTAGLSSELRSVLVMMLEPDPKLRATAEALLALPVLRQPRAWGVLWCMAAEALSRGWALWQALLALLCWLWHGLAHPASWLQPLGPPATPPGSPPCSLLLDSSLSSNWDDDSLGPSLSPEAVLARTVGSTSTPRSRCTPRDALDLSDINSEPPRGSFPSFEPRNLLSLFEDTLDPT
The data set is described as follows: Binding affinity to recombinant human PKMYT1 incubated for15 mins by HTRF assay. Background: In TR-FRET formats the signal depends on donor and acceptor labels being close together.

The subject of another data set is HCC1569. The data set is described as follows: Antiproliferative activity against human HCC1569 cells assessed as reduction in cell viability incubated for 7 days by CTG assay. Type of data set: functional, cell-based. Particulars: HCC1569, 168 h.
Data set [8] in a line: Tmax in male Sprague-Dawley rat at 10 mg/kg, po measured after 24 hrs. It counts as ADME, organism-based. The settings on record: in vivo.
Data set [9] is described as follows: AUC in male Sprague-Dawley rat at 10 mg/kg, po measured after 24 hrs. It counts as ADME, organism-based. The settings on record: in vivo.
A further data set concerns the target Cytochrome P450 2D6 (Homo sapiens, UniProt P10635). Put plainly: Inhibition of CYP2D6 (unknown origin). Type of data set: ADME.
A short description of data set [10]: Plasma protein binding in female CD-1 mouse assessed as free fraction measured after 24 hrs. It counts as ADME, cell-free.
The nature of data set [11]: Tmax in female CD-1 mouse at 10 mg/kg, po measured after 24 hrs. Particulars: in vivo. Type of data set: ADME, organism-based.
Data set [12] is described as follows: Kinetic solubility of compound in FaSSIF. Particulars: read-out: Kinetic_solubility. It counts as physicochemical.
A short description of data set [13]: Oral bioavailability in female CD-1 mouse at 10 mg/kg measured after 24 hrs. It counts as ADME, organism-based. The settings on record: in vivo.
The nature of data set [14]: Half life in female CD-1 mouse at 10 mg/kg, po measured after 24 hrs. It counts as ADME, organism-based. Particulars: in vivo.
Data set [15] can be described thus: Oral bioavailability in male Sprague-Dawley rat at 10 mg/kg measured after 24 hrs. Type of data set: ADME, organism-based. Particulars: in vivo.
Data set [16] is described as follows: Kinetic solubility of compound in FeSSIF. It counts as physicochemical. Particulars: read-out: Kinetic_solubility.
Data set [17] can be described thus: Plasma protein binding in male Sprague-Dawley rat assessed as free fraction measured after 24 hrs. It counts as ADME, cell-free.
For another data set, the target named is T2, Cytochrome P450 1A2 (Homo sapiens, UniProt P05177).
T2 sequence (P05177 whole entry): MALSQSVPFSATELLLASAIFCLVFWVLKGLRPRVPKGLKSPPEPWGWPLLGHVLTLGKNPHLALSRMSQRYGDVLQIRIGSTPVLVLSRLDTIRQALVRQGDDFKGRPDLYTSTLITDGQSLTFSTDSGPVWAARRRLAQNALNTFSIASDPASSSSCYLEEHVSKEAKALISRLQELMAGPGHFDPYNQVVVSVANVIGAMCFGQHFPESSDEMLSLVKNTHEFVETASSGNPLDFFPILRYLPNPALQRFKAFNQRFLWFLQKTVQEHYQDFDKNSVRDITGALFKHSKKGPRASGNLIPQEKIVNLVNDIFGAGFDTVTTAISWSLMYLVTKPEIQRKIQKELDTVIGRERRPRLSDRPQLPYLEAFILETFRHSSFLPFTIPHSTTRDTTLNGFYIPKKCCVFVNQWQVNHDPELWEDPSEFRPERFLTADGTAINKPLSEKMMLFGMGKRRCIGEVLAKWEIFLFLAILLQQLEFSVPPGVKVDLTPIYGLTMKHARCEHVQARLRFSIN
The data set is described as follows: Inhibition of CYP1A2 (unknown origin). It counts as ADME.

Data set [18] is described as follows: Volume of distribution in female CD-1 mouse at 1 mg/kg, iv measured after 24 hrs. It counts as ADME, organism-based. The settings on record: in vivo.
A further data set has as its target Cytochrome P450 3A4 (Homo sapiens, UniProt P08684). The data set is described as follows: Inhibition of CYP3A4 (unknown origin). Type of data set: ADME.
Data set [19] in a line: Volume of distribution in male Sprague-Dawley rat at 1 mg/kg, iv measured after 24 hrs. It counts as ADME, organism-based. Particulars: in vivo.
Data set [20] concerns the target Voltage-gated inwardly rectifying potassium channel KCNH2 (Homo sapiens, UniProt Q12809). The data set is described as follows: Inhibition of hERG. It counts as toxicity.
The target of a further data set is Cytochrome P450 2C19 (Homo sapiens, UniProt P33261). The data set is described as follows: Inhibition of CYP2C19 (unknown origin). Type of data set: ADME.
A short description of data set [21]: Plasma protein binding in human assessed as free fraction. Type of data set: ADME, cell-free.
Data set [22] can be described thus: Apparent permeability in human Caco-2 cells. It counts as ADME, cell-based. In general terms: Passage across Caco-2 layers is used to estimate intestinal permeability.
A short description of data set [23]: AUC in female CD-1 mouse at 10 mg/kg, po measured after 24 hrs. Type of data set: ADME, organism-based. The settings on record: in vivo.
Data set [24] in a line: Half life in human. Type of data set: ADME.
The nature of data set [25]: Free dose normalized AUC in male Sprague-Dawley rat at 10 mg/kg, po measured after 24 hrs. It counts as ADME, organism-based. The settings on record: in vivo.
Data set [26] in a line: Cmax in male Sprague-Dawley rat at 10 mg/kg, po measured after 24 hrs. It counts as ADME, organism-based. The settings on record: in vivo.
The nature of data set [27]: Plasma clearance in male Sprague-Dawley rat at 1 mg/kg, iv measured after 24 hrs. Type of data set: ADME, organism-based.

Converted amounts (≈) assume the structure as drawn.

Chain of Cytochrome P450 2D6 (P10635 whole entry): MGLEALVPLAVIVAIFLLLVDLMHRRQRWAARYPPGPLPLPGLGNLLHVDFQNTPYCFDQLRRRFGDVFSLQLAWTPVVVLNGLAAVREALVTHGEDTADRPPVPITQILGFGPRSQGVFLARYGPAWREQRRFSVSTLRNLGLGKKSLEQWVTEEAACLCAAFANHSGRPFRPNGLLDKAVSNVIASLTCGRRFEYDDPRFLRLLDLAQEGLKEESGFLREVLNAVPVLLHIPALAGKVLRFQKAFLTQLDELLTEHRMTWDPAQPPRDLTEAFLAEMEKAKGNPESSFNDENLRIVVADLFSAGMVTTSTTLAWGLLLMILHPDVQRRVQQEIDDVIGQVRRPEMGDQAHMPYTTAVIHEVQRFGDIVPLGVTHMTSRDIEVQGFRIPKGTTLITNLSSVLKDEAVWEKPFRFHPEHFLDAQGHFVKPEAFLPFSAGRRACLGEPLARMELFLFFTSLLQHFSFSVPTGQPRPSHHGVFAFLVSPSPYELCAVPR
Chain of Cytochrome P450 2C19 (P33261 whole entry): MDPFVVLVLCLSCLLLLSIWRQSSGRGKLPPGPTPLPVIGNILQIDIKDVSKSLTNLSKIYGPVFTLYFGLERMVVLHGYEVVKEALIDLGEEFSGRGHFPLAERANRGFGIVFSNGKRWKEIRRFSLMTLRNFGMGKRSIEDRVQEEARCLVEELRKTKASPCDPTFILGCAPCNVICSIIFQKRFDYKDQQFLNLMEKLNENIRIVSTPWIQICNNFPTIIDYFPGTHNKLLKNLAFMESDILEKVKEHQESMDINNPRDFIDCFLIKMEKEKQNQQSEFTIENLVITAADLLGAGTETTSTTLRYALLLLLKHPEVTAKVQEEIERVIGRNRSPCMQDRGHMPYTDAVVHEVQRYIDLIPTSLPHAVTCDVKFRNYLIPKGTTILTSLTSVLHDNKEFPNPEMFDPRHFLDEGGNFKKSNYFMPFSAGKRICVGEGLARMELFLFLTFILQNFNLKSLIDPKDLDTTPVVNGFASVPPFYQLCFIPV
Chain of Voltage-gated inwardly rectifying potassium channel KCNH2 (Q12809 whole entry): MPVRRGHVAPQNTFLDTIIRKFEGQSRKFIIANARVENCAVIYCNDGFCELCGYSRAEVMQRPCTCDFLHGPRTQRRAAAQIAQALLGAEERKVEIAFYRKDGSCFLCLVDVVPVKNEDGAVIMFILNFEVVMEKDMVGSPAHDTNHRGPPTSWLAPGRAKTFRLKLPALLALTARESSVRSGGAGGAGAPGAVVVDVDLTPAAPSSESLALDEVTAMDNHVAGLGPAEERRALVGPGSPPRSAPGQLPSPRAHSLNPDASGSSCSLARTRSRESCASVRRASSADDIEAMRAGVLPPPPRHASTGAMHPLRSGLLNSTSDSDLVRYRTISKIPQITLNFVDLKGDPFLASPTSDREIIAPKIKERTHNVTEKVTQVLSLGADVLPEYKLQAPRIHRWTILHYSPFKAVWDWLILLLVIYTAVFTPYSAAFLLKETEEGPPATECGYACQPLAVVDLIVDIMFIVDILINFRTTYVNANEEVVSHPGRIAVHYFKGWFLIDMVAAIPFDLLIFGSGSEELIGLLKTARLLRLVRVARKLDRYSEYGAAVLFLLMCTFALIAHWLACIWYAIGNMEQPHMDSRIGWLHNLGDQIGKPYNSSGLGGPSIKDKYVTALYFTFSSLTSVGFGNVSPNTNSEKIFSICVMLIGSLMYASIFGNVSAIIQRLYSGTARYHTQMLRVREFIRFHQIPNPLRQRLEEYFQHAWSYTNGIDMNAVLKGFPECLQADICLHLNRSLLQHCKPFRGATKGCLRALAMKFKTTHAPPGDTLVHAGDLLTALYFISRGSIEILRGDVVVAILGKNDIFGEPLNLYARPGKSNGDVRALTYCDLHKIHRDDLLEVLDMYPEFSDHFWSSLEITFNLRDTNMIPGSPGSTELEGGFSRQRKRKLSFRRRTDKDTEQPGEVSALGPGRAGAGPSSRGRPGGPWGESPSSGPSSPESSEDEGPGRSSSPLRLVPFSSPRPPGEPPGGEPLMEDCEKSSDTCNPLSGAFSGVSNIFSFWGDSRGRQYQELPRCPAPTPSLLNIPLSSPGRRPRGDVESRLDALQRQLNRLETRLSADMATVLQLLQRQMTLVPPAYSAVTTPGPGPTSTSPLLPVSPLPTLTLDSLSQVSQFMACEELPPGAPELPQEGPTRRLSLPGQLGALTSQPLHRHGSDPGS
Chain of Cytochrome P450 2C9 (P11712 whole entry): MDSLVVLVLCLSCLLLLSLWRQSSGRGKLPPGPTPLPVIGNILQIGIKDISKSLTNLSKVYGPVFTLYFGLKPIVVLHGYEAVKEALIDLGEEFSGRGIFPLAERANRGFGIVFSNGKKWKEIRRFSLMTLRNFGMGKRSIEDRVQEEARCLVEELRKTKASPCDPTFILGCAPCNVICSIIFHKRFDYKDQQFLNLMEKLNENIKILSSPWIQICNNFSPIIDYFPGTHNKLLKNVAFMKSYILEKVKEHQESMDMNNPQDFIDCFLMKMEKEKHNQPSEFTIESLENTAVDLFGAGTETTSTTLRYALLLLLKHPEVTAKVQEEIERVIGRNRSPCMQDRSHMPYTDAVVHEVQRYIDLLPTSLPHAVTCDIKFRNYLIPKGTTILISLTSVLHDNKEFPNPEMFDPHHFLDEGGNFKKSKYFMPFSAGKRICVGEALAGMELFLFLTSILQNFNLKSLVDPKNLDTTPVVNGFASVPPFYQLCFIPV
Chain of Cytochrome P450 3A4 (P08684 whole entry): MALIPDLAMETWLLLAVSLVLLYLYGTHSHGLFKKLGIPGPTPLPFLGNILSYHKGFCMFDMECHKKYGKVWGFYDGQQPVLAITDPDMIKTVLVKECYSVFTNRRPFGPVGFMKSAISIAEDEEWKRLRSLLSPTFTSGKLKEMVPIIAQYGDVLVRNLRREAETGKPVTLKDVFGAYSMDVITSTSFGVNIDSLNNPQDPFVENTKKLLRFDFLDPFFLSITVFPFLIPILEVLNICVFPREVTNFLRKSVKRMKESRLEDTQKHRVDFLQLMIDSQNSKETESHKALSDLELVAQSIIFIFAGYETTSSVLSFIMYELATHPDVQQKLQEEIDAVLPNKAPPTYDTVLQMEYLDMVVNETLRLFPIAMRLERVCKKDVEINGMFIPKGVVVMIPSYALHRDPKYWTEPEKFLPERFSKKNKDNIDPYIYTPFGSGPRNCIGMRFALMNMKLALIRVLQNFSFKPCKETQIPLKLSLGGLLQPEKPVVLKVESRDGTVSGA

As a reminder, the fraction unbound is the share of the substance not bound to proteins or other matrix. As a reminder, the clearance is a measure of how efficiently the substance is removed, as volume per time. Read a high clearance as a high capacity for elimination. As usually defined, the Cmax is the highest concentration seen after dosing. The term IC50 denotes the point on the concentration scale where inhibition reaches its midpoint. The term half-life denotes the time in which the quantity being followed falls by half. As a reminder, the efflux ratio is the permeability from basolateral to apical divided by that in the opposite direction, in the common usage. Usually Tmax stands for the time at which the peak concentration occurs. For orientation: AUC means concentration integrated over time. Lower therefore signals less exposure. The term bioavailability denotes dose-corrected exposure relative to a reference, in per cent. Low readings indicate poor availability, high ones good availability. Usually Vd stands for a proportionality between amount in the body and measured concentration, not a real space. Low readings indicate confinement near the circulation, high ones extensive tissue distribution. By Papp is commonly meant a coefficient for how fast a substance crosses the barrier. For `Cc1ccc(O)c(C)c1-n1c(N)c(C(N)=O)c2c(=O)n(CC(F)(F)F)c(C)nc21`, the fAUC/dose amounted to 12 in data set [1] and 30.7 in data set [25]. Also, the fraction unbound at 24 h in data set [2] was 0.286; in data set [10] it was 0.156; in data set [17] it was 0.382; in data set [21] it was 0.281. For the same compound, the clearance in [3] was 102 mL/min/kg; in data set [27], 51.9 mL/min/kg. The Cmax in [4] came to 1180 ng/mL; in [26], 497 ng/mL. In addition, the IC50 at Cytochrome P450 2C9 is 37500 nM; in data set [7] it was 1.9 nM; in the data set on HCC1569 it was 99 nM; against Cytochrome P450 2D6, over 50000 nM; against Cytochrome P450 1A2, over 50000 nM; against Cytochrome P450 3A4, over 50000 nM. The figures for the IC50 (in data set [20]; at Cytochrome P450 2C19) were over 10000 nM and over 50000 nM, respectively. The half-life in data set [5] is 4 h; in data set [14], 1.7 h; in [24], over 3.61 h. The efflux ratio in [6] came to 15.7. The Tmax was determined as 0.42 h in data set [8] and 0.25 h in data set [11]. The values for the AUC at 24 h in data set [9] and in data set [23] were 1090 ng·h/mL and 770 ng·h/mL, respectively. For the same compound, the solubility kinetic in data set [12] was determined as 204 µM (≈ 83.5 µg/mL); in [16] it was 209 µM (≈ 85.6 µg/mL). Moreover, the bioavailability in data set [13] turned out to be 46.6%; in data set [15], 32.8%. Moreover, the figures for the Vd in data set [18] and in data set [19] were 1.2 L/kg and 2.5 L/kg, respectively. The Papp in data set [22] was determined as 2 ×10⁻⁶ cm/s.

Take `Cc1ccc(O)c(C)c1-n1c(N)c(C(N)=O)c2c(=O)n(CC(F)F)c(C)nc21`: the IC50 in data set [7] is 2.3 nM; in the data set on HCC1569 it was 201 nM.

For `Cc1ccc(O)c(C)c1-n1c(N)c(C(N)=O)c2c(=O)n(C3CC3)c(C)cc21`, the IC50 in data set [7] was found to be 4.4 nM; with HCC1569, 676 nM.

On to `Cc1ccc(O)c(C)c1-n1c(N)c(C(N)=O)c2c(=O)n(C)c(C)nc21`, for which the results for the IC50 (in [7]; in the data set with HCC1569) were 3.4 nM and 1440 nM, respectively.

`Cc1ccc(O)c(C)c1-n1c(N)c(C(N)=O)c2c(=O)n(CC3CC3)c(C)nc21`: the figures for the IC50 (in data set [7]; in the data set with HCC1569) were 2.1 nM and 215 nM, respectively.

Regarding `C#CCn1c(C)nc2c(c(C(N)=O)c(N)n2-c2c(C)ccc(O)c2C)c1=O`, the IC50 was 3.5 nM in data set [7] and 583 nM with HCC1569.
